Each compound was assayed against T1, MAGL (Homo sapiens, UniProt Q99685) (assay: MAGL inhibition, 2-AG assay (hydrolysis of 2-arachidonoylglycerol, arachidonic acid by mass spectrometry)). Settings: 2-AG assay (footnote [b]).
T1 sequence (Q99685 1-303): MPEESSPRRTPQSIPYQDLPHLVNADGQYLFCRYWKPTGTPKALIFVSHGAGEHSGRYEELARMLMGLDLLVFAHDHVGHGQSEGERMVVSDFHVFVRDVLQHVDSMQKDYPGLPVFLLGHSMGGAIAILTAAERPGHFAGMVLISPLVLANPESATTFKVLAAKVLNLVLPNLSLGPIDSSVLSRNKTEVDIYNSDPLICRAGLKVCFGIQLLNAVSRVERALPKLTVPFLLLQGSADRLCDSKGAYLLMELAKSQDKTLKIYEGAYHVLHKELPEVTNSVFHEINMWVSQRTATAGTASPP
Assay type: biochemical
Outline: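 Human MAGL […] was preincubated 15 min at RT with compound ([…], 3-fold steps) in 50 mM Tris, 1 mM EDTA, 0.01% Tween. 2-AG (8 μM) was then added for 30 min at RT. Arachidonic acid was quantified by RapidFire SPE–triple quadrupole MS in negative ESI as its ratio to a d8-arachidonic acid standard.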

| SMILES | IC50 |
| --- | --- |
| O=C1CO[C@H]2CCN(C(=O)N3CC(c4ccc(-c5ccc(Cl)cc5F)cc4)C3)C[C@H]2N1 [Example 133, (4aR,8aS)-6-[3-[4-(4-Chloro-2-fluoro-phenyl)phenyl]azetidine-1-carbonyl]-4,4a,5,7,8,8a-hexahydropyrido[4,3-b][1,4]oxazin-3-one] | 0.2 nM |
| O=C1CO[C@H]2CCN(C(=O)N3CC(c4ccc(-c5ccc(F)cc5Cl)cc4)C3)C[C@H]2N1 [Example 134, (4aR,8aS)-6-[3-[4-(2-Chloro-4-fluoro-phenyl)phenyl]azetidine-1-carbonyl]-4,4a,5,7,8,8a-hexahydropyrido[4,3-b][1,4]oxazin-3-one] | 0.1 nM |
| Cc1ccccc1-c1ccc(C2CN(C(=O)N3CC[C@@H]4OCC(=O)N[C@@H]4C3)C2)cc1 [Example 137, (4aR,8aS)-6-(3-(2′-Methyl-[1,1′-biphenyl]-4-yl)azetidine-1-carbonyl)hexahydro-2H-pyrido[4,3-b][1,4]oxazin-3(4H)-one] | 0.1 nM |
| CC(OC1CN(c2ccc(C3CN(C(=O)N4CC[C@@H]5OCC(=O)N[C@@H]5C4)C3)cc2)C1)C(F)(F)F (stereo partly drawn) [Example 138, (4aR,8aS)-6-(3-(4-(3-((1,1,1-Trifluoropropan-2-yl)oxy)azetidin-1-yl)phenyl)azetidine-1-carbonyl)hexahydro-2H-pyrido[4,3-b][1,4]oxazin-3(4H)-one] | 1 nM |
| O=C1CO[C@H]2CCN(C(=O)N3CC(c4cccc(Br)c4)C3)C[C@H]2N1 [Example 139, (4aR,8aS)-6-(3-(3-Bromophenyl)azetidine-1-carbonyl)hexahydro-2H-pyrido[4,3-b][1,4]oxazin-3(4H)-one] | 27 nM |
| CC(C)(C)c1ccc(C2CN(C(=O)N3CC[C@@H]4OCC(=O)N[C@@H]4C3)C2)cc1 [Example 140, (4aR,8aS)-6-(3-(4-(tert-Butyl)phenyl)azetidine-1-carbonyl)hexahydro-2H-pyrido[4,3-b][1,4]oxazin-3(4H)-one] | 0.6 nM |
| O=C1CO[C@H]2CCN(C(=O)N3CC(c4ccc(-c5ccccc5)cc4)C3)C[C@H]2N1 [Example 141, (4aR,8aS)-6-[3-(4-Phenylphenyl)azetidine-1-carbonyl]-4,4a,5,7,8,8a-hexahydropyrido[4,3-b][1,4]oxazin-3-one] | 2 nM |
| O=C1CO[C@H]2CCN(C(=O)N3CC(c4ccc(-c5ccccc5C(F)F)cc4)C3)C[C@H]2N1 [Example 142, (4aR,8aS)-6-[3-[4-[2-(Difluoromethyl)phenyl]phenyl]azetidine-1-carbonyl]-4,4a,5,7,8,8a-hexahydropyrido[4,3-b][1,4]oxazin-3-one] | 0.1 nM |
| Cc1cccc(-c2ccc(C3CN(C(=O)N4CC[C@@H]5OCC(=O)N[C@@H]5C4)C3)cc2)c1 [Example 143, (4aR,8aS)-6-(3-(3′-Methyl-[1,1′-biphenyl]-4-yl)azetidine-1-carbonyl)hexahydro-2H-pyrido[4,3-b][1,4]oxazin-3(4H)-one] | 1 nM |
| Cc1ccc(-c2ccc(C3CN(C(=O)N4CC[C@@H]5OCC(=O)N[C@@H]5C4)C3)cc2)cc1 [Example 144, (4aR,8aS)-6-(3-(4′-Methyl-[1,1′-biphenyl]-4-yl)azetidine-1-carbonyl)hexahydro-2H-pyrido[4,3-b][1,4]oxazin-3(4H)-one] | 1 nM |
| O=C1CO[C@H]2CCN(C(=O)N3CC(c4ccc(Cl)nc4)C3)C[C@H]2N1 [Example 145, (4aR,8aS)-6-(3-(6-Chloropyridin-3-yl)azetidine-1-carbonyl)hexahydro-2H-pyrido[4,3-b][1,4]oxazin-3(4H)-one] | 4300 nM |
| O=C1CO[C@H]2CCN(C(=O)N3CC(c4ccc(C(F)(F)F)cc4)C3)C[C@H]2N1 [Example 146, (4aR,8aS)-6-(3-(4-(Trifluoromethyl)phenyl)azetidine-1-carbonyl)hexahydro-2H-pyrido[4,3-b][1,4]oxazin-3(4H)-one] | 34 nM |
| CC(C)(OC1CN(c2ccc(C3CN(C(=O)N4CC[C@@H]5OCC(=O)N[C@@H]5C4)C3)cc2)C1)C(F)(F)F [Example 147, (4aR,8aS)-6-(3-(4-(3-((1,1,1-Trifluoro-2-methylpropan-2-yl)oxy)azetidin-1-yl)phenyl)azetidine-1-carbonyl)hexahydro-2H-pyrido[4,3-b][1,4]oxazin-3(4H)-one] | 1 nM |
| CC(F)(F)c1ccc(C2CN(C(=O)N3CC[C@@H]4OCC(=O)N[C@@H]4C3)C2)cc1 [Example 148, (4aR,8aS)-6-(3-(4-(1,1-Difluoroethyl)phenyl)azetidine-1-carbonyl)hexahydro-2H-pyrido[4,3-b][1,4]oxazin-3(4H)-one] | 14 nM |
| CC1CN(c2ccc(C3CN(C(=O)N4CC[C@@H]5OCC(=O)N[C@@H]5C4)C3)cc2)C1 [Example 151, (4aR,8aS)-6-(3-(4-(3-Methylazetidin-1-yl)phenyl)azetidine-1-carbonyl)hexahydro-2H-pyrido[4,3-b][1,4]oxazin-3(4H)-one] | 5 nM |
| CC1(C)CCN(c2ccc(C3CN(C(=O)N4CC[C@@H]5OCC(=O)N[C@@H]5C4)C3)cc2)C1 [Example 152, (4aR,8aS)-6-(3-(4-(3,3-Dimethylpyrrolidin-1-yl)phenyl)azetidine-1-carbonyl)hexahydro-2H-pyrido[4,3-b][1,4]oxazin-3(4H)-one] | 0.4 nM |
| O=C1CO[C@H]2CCN(C(=O)N3CC(c4ccc(N5CC(OC(F)(F)F)C5)cc4)C3)C[C@H]2N1 [Example 153, (4aR,8aS)-6-(3-(4-(3-(Trifluoromethoxy)azetidin-1-yl)phenyl)azetidine-1-carbonyl)hexahydro-2H-pyrido[4,3-b][1,4]oxazin-3(4H)-one] | 2 nM |
| O=C1CO[C@H]2CCN(C(=O)N3CC(c4ccc(-c5ccc(Cl)cc5Cl)nc4)C3)C[C@H]2N1 [Example 154, (4aR,8aS)-6-(3-(6-(2,4-Dichlorophenyl)pyridin-3-yl)azetidine-1-carbonyl)hexahydro-2H-pyrido[4,3-b][1,4]oxazin-3(4H)-one] | 1 nM |
| CS(=O)(=O)c1ccc(-c2ccc(C3CN(C(=O)N4CC[C@@H]5OCC(=O)N[C@@H]5C4)C3)cc2)c(Cl)c1 [Example 155] | 0.8 nM |
| O=C1CO[C@H]2CCN(C(=O)N3CC(c4ccc(N5CC(F)(F)C5)cc4)C3)C[C@H]2N1 [Example 156, (4aR,8aS)-6-(3-(4-(3,3-Difluoroazetidin-1-yl)phenyl)azetidine-1-carbonyl)hexahydro-2H-pyrido[4,3-b][1,4]oxazin-3(4H)-one] | 24 nM |
| O=C1CO[C@H]2CCN(C(=O)N3CCC(c4ccc(Br)cc4)CC3)C[C@H]2N1 [Example 157, (4aR,8aS)-6-(4-(4-Bromophenyl)piperidine-1-carbonyl)hexahydro-2H-pyrido[4,3-b][1,4]oxazin-3(4H)-one] | 289 nM |
| O=C1CO[C@H]2CCN(C(=O)N3CC(c4ccc(OCC(F)(F)F)cc4)C3)C[C@H]2N1 [Example 158, (4aR,8aS)-6-[3-[4-(2,2,2-Trifluoroethoxy)phenyl]azetidine-1-carbonyl]-4,4a,5,7,8,8a-hexahydropyrido[4,3-b][1,4]oxazin-3-one] | 7 nM |
| N#Cc1cc(Cl)ccc1-c1ccc(C2CN(C(=O)N3CC[C@@H]4OCC(=O)N[C@@H]4C3)C2)cc1 [Example 159, 2-[4-[1-[(4aR,8aS)-3-Oxo-4,4a,5,7,8,8a-hexahydropyrido[4,3-b][1,4]oxazine-6-carbonyl]azetidin-3-yl]phenyl]-5-chloro-benzonitrile] | 0.1 nM |
| O=C1CO[C@H]2CCN(C(=O)N3CC(c4ccc(N5CCCC5C(F)(F)F)cc4)C3)C[C@H]2N1 (stereo partly drawn) [Example 162, (4aR,8aS)-6-(3-(4-(2-(Trifluoromethyl)pyrrolidin-1-yl)phenyl)azetidine-1-carbonyl)hexahydro-2H-pyrido[4,3-b][1,4]oxazin-3(4H)-one] | 0.3 nM |
| O=C1CO[C@H]2CCN(C(=O)N3CC(c4ccc(N5CCC(C(F)(F)F)C5)cc4)C3)C[C@H]2N1 (stereo partly drawn) [Example 163, (4aR,8aS)-6-(3-(4-(3-(Trifluoromethyl)pyrrolidin-1-yl)phenyl)azetidine-1-carbonyl)hexahydro-2H-pyrido[4,3-b][1,4]oxazin-3(4H)-one] | 0.7 nM |
| O=C1CO[C@H]2CCN(C(=O)N3CCC(c4cccc(Br)c4)C3)C[C@H]2N1 (stereo partly drawn) [Example 164, (4aR,8aS)-6-(3-(3-Bromophenyl)pyrrolidine-1-carbonyl)hexahydro-2H-pyrido[4,3-b][1,4]oxazin-3(4H)-one] | 82 nM |
| CCC1CCCN1c1ccc(C2CN(C(=O)N3CC[C@@H]4OCC(=O)N[C@@H]4C3)C2)cc1 (stereo partly drawn) [Example 165, (4aR,8aS)-6-[3-[4-(2-Ethylpyrrolidin-1-yl)phenyl]azetidine-1-carbonyl]-4,4a,5,7,8,8a-hexahydropyrido[4,3-b][1,4]oxazin-3-one] | 0.4 nM |
| N#Cc1cccc(Cl)c1-c1ccc(C2CN(C(=O)N3CC[C@@H]4OCC(=O)N[C@@H]4C3)C2)cc1 [Example 166, 2-[4-[1-[(4aR,8aS)-3-Oxo-4,4a,5,7,8,8a-hexahydropyrido[4,3-b][1,4]oxazine-6-carbonyl]azetidin-3-yl]phenyl]-3-chloro-benzonitrile] | 0.1 nM |
| O=C1CO[C@H]2CCN(C(=O)N3CC(c4ccc(N5CCCC5C5CC5)cc4)C3)C[C@H]2N1 (stereo partly drawn) [Example 167, (4aR,8aS)-6-(3-(4-(2-Cyclopropylpyrrolidin-1-yl)phenyl)azetidine-1-carbonyl)hexahydro-2H-pyrido[4,3-b][1,4]oxazin-3(4H)-one] | 0.2 nM |
